Laboratory results: patent US4853407A, “Aminoethylcysteine derivatives” (Sanraku Incorporated, priority 1987, dated 1989)
pIC50: −log10 of the molar value.

What was measured:
[1] = In vivo test on dipeptidase-inhibiting activity (recovery of co-administered antibiotic 88617 in urine); design: species or system ddY mice; conditions: mouse, sc; control: antibiotic 88617 alone, 20 mg/kg subcutaneous; urine collected 6 hours; average of five mice; read-out: Recovery ratio of antibiotic 88617 in urine
Protocol: (§1) Five weeks aged ddY mice were grouped five mice for one group, and aqueous solutions containing 80 or 250 mg/ml concentration of the dipeptidase-inhibiting agent of this invention (adjusted with 1N NaOH to pH 7.5) were intravenously administered to the mice. A control group was administered with a same amount of pure water. 3 to 5 minutes after the administration, 0.25 ml of an antibiotic 88617 (M/100 PBS, pH 7.0 solutions) at 5 or 20 mg/kg-mouse were subcutaneously administered to the mice. Six hours after the administration of the antibiotic 88617, all the urines of the mice were collected and the concentrations of the antibiotic 88617 in all the collected urines were measured by disc-agar diffusion method in which Comamonas terrigena was used as test bacteria, and average values of five mice were determined.

dipeptidase [2] = experiment: as above; design: species or system ddY mice; conditions: 6 hours, average of five mice
Protocol: as §1

dipeptidase [3] = molecular target: T1, dipeptidase (Rattus norvegicus, UniProt P31430); experiment: In vitro test on dipeptidase-inhibiting activity (antibiotic PS-5 as substrate, absorbance at 301 nm); type: biochemical; conditions: partially purified dipeptidase from rat kidney; substrate antibiotic PS-5, pH 8.0, 37° C., 5 minutes; read-out: ID50 (the source's name)
T1 construct: to obtain a partially purified sample of dipeptidase; from tissue; host or cells: rat kidney, microsome fraction, trypsin-treated, Triton X-100 solubilised, partially purified
Protocol: Rats were sacrificed by decapitation to bleed, and about 12 g of fresh kidneys were collected. And a microsome fraction was obtained by subcellular fractionating method according to fractional centrifugation of Hogboom (Methods in Enzymology, vol. 1, pages 16-19, Academic Press, New York, 1955). This microsome fraction was treated with 400 μg/ml of trypsin at 0° C. for 16 hours, and then subjected to fractional ultracentrifugation at 10^5 G at 0° C. for 60 minutes.
The resultant precipitate was solubilized by 20 ml of Tris-HCl buffer (20 mM, pH 7.6) containing a surfactant (0.4% Triton® X-100), and subjected to fractional ultracentrifugation at 10^5 G at 0° C. for 60 minutes. […]
The enzyme obtained above ([…]) was preincubated together with 30 μl of an inhibiting agent solution in a cuvette at 37° C. for 5 minutes. […] The reaction was carried out within a cuvette of HITACHI spectrophotometer equipped with a constant temperature device (37° C.), and decreases of absorbance at a wavelength of 301 nm for 5 minutes were determined by a recorder.
By the values obtained above and values from control containing no inhibiting agent, the percent inhibition and ID50 at a predetermined inhibition concentration were determined.

T1 sequence (P31430 17-410): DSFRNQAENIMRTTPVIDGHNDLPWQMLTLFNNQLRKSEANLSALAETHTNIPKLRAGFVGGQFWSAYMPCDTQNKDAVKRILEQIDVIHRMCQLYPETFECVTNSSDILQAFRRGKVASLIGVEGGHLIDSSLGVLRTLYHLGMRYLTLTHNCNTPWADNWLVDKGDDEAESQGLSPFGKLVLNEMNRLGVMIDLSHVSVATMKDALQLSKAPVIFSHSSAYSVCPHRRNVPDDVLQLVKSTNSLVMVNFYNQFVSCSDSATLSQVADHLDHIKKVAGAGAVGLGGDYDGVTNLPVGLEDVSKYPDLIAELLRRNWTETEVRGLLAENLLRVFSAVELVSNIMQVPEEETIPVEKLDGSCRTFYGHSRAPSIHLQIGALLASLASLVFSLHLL

Row | dose excreted at 6 h [1] [%] | pIC50 (dipeptidase [3]) | Compound | Recovery ratio of antibiotic 88617 in urine when dipeptidase-inhibiting agent was co-administered (dipeptidase [2]; inhibitor 50 mg/kg intravenous in combination with antibiotic 88617 20 mg/kg subcutaneous) [%] | Recovery ratio of antibiotic 88617 in urine when dipeptidase-inhibiting agent was co-administered (dipeptidase [2]; inhibitor 250 mg/kg intravenous in combination with antibiotic 88617 20 mg/kg subcutaneous) [%]
1 | 27.5 | – | CN=C(CSC1=C(C(=O)O)N2C(=O)C(C(C)F)C2C1)N(C)C (centres unmarked) [Antibiotic 88617, reference compound] | – | –
2 | – | 3.68 | O=C(NCCSC[C@H](NC(=O)c1ccccc1)C(=O)O)c1ccccc1 [Compound No. 1, N-benzoyl-S-(2-benzoylaminoethyl)-L-cysteine] | 38.0 | 57.2
3 | – | 3.32 | O=C(O)[C@H](CSCCN1C(=O)c2ccccc2C1=O)N1C(=O)c2ccccc2C1=O [Compound No. 2, S-(2-phthalimidethyl)-N-phthaloyl-L-cysteine] | – | –
